The structures appear in SMILES notation. Where “and” joins values, the source holds several entries; their conditions need not be identical. Equal values may be shown once. Entries after “also recorded” stand apart in the source; their conditions may differ.

One experiment deals with PANC-1. Description: Cell growth inhibition, PANC-1 (MTT). Type of experiment: cell-based. The conditions noted are these: PANC-1, 5 days; read-out: EC50, antiproliferative activity. Here is the method:
(§1) The anti-proliferation assays for non-breast cancer cells were done using a previously developed assay. In brief, for Kasumi-1 cells, […] were added into 96-well plates and cultured with increasing concentrations of a compound in RPMI-1640 medium supplemented with 20% fetal bovine serum and penicillin (100 U/mL) and streptomycin (100 µg/mL) at 37° C. in a 5% CO2 atmosphere with 100% humidity. For solid tumor cells, 10^5 cells per well were added into 96-well plates and cultured in Dulbecco’s Modified Eagle’s Medium (DMEM) supplemented with 10% fetal bovine serum and penicillin (100 U/mL) and streptomycin (100 µg/mL) overnight. Upon addition of increasing concentrations of a compound, cells were incubated for 5 days. Cell viability was assessed by using an XTT assay kit (Roche) for leukemia cells or an MTT assay (Sigma) for attachment cells. For the breast cancer MCF-7 cells, culture and inhibition assays were performed according to our previous methods in Ref. 25 and 26. Compound EC50 values were calculated from dose response curves using Prism 5.0.

Another experiment relates to MCF-7. Nature of the experiment: Cell growth inhibition, MCF-7. Format: cell-based. The note with it: read-out: EC50, antiproliferative activity. How it is done:
as §1

The target in another experiment is T1, Myst3 (Homo sapiens, UniProt Q92794).
T1 construct: made in house
T1 sequence (Q92794 whole entry): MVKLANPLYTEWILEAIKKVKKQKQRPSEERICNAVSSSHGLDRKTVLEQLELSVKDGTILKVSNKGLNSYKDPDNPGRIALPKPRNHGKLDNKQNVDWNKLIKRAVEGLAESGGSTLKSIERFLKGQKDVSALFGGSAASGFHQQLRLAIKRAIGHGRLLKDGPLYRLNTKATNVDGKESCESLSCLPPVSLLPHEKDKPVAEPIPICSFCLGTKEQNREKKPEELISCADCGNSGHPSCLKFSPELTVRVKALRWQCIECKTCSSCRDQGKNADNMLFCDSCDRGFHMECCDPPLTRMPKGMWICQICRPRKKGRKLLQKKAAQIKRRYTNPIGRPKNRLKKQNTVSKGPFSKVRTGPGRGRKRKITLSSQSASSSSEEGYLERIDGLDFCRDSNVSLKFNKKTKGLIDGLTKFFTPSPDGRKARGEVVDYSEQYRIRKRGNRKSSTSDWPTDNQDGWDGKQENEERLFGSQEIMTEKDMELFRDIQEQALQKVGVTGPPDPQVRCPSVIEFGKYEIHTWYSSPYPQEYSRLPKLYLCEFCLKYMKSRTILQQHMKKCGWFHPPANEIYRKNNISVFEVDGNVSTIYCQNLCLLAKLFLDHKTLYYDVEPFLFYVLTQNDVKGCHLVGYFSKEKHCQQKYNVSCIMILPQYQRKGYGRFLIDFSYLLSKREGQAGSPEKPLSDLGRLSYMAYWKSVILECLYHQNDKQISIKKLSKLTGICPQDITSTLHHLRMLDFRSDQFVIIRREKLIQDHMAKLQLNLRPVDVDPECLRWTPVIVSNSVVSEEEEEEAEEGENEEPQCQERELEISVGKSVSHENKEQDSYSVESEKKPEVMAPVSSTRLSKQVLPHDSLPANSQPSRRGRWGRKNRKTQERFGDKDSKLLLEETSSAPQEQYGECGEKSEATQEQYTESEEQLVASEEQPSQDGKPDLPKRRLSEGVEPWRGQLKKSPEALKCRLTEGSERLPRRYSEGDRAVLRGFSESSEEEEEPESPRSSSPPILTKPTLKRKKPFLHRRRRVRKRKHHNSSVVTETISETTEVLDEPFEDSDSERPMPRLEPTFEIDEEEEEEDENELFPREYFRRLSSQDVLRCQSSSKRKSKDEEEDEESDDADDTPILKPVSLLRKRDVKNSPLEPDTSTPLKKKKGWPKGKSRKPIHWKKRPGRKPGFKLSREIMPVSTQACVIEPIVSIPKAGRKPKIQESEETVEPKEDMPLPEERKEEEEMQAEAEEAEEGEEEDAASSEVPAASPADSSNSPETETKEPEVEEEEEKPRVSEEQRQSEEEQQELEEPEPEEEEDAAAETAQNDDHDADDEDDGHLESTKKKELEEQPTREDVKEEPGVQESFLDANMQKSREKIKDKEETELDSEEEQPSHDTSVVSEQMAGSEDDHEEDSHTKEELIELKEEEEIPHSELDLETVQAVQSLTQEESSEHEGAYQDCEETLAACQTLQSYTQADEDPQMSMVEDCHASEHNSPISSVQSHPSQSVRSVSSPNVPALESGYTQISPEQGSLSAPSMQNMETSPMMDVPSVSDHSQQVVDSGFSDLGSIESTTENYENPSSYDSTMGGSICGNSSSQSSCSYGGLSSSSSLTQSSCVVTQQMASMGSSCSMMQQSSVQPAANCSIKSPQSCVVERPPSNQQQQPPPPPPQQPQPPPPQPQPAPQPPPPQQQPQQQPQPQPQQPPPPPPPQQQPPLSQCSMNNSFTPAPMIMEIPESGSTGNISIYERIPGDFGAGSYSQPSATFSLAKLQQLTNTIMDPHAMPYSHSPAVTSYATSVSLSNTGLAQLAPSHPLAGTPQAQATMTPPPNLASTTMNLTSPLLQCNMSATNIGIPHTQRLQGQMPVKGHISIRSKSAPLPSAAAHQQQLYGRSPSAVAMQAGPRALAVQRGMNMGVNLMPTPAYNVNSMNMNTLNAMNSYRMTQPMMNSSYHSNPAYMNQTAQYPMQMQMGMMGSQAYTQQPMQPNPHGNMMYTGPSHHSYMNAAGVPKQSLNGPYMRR
Nature of the experiment: Myst3 HAT inhibition assay. Format: biochemical.

The next experiment deals with Kasumi-1 leukemia cells. Nature of the experiment: Cellular histone acetylation, Western blot. Format: cell-based. The conditions noted are these: Kasumi-1 cells, 12 h, 5 and 10 µM. How it is done:
Kasumi-1 leukemia cells were treated with increasing concentrations of these compounds for 12 h. Histone was extracted and subjected to electrophoresis separation and Western blot staining to determine levels of acetylation at various lysine residues. […] H3K27 seems to be the most sensitive cellular substrate of p300 HAT. […] This might be due to different mode of inhibition or cell permeability for the two compounds.
About 10^6 Kasumi-1 cells per well were incubated with compound 11 at 0, 5 and 10 µM for 12 hours. Histone proteins were extracted using EpiQuik total histone extraction kit (Epigentek), according to the manufacturer’s protocol. Equal amounts of histones (2 µg) were separated on SDS-PAGE and transferred to PVDF membranes. The blots were probed with primary antibodies against H3K9Ac, H3K18Ac, H3K27Ac and H3 (Cell Signaling), followed by anti-rabbit IgG (Thermo Scientific) secondary antibodies.
On the technique in general: Immunoblotting shows a protein as a band on a membrane.

The next experiment concerns Kasumi-1. Nature of the experiment: Cell growth inhibition, Kasumi-1 (XTT). Type of experiment: cell-based. The note with it: Kasumi-1, 5 days; read-out: EC50, antiproliferative activity. How it is done: as §1
In another experiment the test system is MDA-PANC-28. Description: Cell growth inhibition, MDA-PANC-28 (MTT). Type of experiment: cell-based. The note with it: MDA-PANC-28, 5 days; read-out: EC50, antiproliferative activity. Here is the method:
as §1

A further experiment deals with T2, PCAF (Homo sapiens, UniProt Q92831).
T2 construct: made in house
T2 sequence (Q92831 whole entry): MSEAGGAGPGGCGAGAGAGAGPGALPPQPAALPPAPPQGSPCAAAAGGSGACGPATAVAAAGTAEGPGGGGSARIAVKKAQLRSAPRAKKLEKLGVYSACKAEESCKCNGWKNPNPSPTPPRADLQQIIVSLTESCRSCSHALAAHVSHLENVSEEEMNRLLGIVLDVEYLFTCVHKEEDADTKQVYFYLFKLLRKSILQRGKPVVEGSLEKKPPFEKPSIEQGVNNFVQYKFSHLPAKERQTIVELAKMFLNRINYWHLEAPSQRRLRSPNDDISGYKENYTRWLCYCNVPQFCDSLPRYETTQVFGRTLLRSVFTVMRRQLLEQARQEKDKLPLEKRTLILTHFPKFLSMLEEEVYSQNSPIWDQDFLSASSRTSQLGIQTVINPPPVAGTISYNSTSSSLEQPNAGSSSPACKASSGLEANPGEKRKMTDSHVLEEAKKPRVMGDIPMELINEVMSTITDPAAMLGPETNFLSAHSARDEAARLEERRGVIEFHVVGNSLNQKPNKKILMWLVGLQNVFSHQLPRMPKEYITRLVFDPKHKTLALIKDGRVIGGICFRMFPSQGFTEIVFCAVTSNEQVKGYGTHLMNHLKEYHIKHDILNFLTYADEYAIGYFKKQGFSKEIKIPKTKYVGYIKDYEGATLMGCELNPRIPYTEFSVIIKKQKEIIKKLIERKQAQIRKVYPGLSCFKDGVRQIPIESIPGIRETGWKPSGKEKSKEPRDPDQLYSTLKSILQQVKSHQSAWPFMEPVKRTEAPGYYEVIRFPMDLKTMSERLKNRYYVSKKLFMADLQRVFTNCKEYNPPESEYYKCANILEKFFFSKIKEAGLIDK
Nature of the experiment: PCAF HAT inhibition assay. Format: biochemical. The source says:
Humans have three classes of histone/protein lysine acetyltransferases with distinct conserved motifs and structures, including p300/CBP, Gcn5-related N-acetyltransferase (GNAT) and MYST (MOZ, Ybf2, Sas2 and Tip60) family of HATs. […] CBP is a homolog of p300. […] PCAF (p300/CBP associating factor) is a member of the GNAT family, while Myst3 belongs to the MYST family of HATs.
The HAT domain (1195-1673) of human p300 was cloned, inserted into pGEX-KG vector and the DNA sequence was verified by sequencing. The p300-HAT expression plasmid was transformed into E. coli BL21-CodonPlus strain (Agilent) and cultured at 37° C. in LB medium containing ampicillin (50 µg/mL) and chloramphenicol (34 µg/mL). After the optical density of the bacterial culture reached ~0.9 at 600 nm, p300 HAT expression was induced by adding 300 µM isopropylthiogalactoside (IPTG) at 18° C. for 48 hours. Cells were collected, lysed, centrifuged for 20 min at 20,000 rpm. The supernatant was subjected to column chromatography with glutathione sepharose resins. The recombinant GST-p300-HAT fusion protein was obtained in ~90% purity (SDS-PAGE) by elution with 10 mM of glutathione solution, which was further purified using a Superdex 200 gel filtration column chromatography. CBP, PCAF and Myst3 HATs were obtained using similar methods.
To determine inhibitory activity, a compound with concentrations ranging from 100 nM to 10 µM was incubated with p300-HAT (10 nM) in 20 µL of 50 mM phosphate buffer (pH = 7.0) containing 0.01% Brij-35 for 10 min at 25° C. Histone H3 peptide (1-21) (20 µM) and Acetyl-CoA (1 µM ^3H—Ac—CoA and 19 µM Ac—CoA) were added to initiate the reaction. After 30 min at 25° C., the reaction was stopped by adding 6 N formic acid (5 µL). 20 µL of reaction mixture was then transferred to a small piece of P81 filter paper (Whatman) that binds histone H3 peptide. The filter paper was washed 3x with 50 mM NaHCO3, dried, and transferred into a scintillation vial containing 2 mL of scintillation cocktail. Radioactivity on the filter paper was measured with a Beckman LS-6500 scintillation counter. […]

The EC50 is the concentration that produces a half-maximal response. The IC50 is the midpoint of a concentration-inhibition curve. On to `CC(C)(C)c1ccc(-c2cc(CNCC3CCNCC3)sc2-c2ccc(C(C)(C)C)cc2)cc1` [Compound 12], for which the EC50 in the experiment on PANC-1 is 1000 nM; in the experiment with MCF-7 it was 2800 nM and ~3000 nM; in the experiment with Kasumi-1 it was 2600 nM; with MDA-PANC-28, 2800 nM. Also, the “inhibition of Myst3” value against Myst3 (at 20 µM) is on record as < 10%. Besides, the “inhibition of Myst3 activity (in words)” value on Myst3 (at 20 µM) is recorded as “did not significantly inhibit”. The IC50 on Myst3 (read-out: IC50 against Myst3) and at PCAF (read-out: IC50 against PCAF) was > 20 µM each time. Besides, the “cellular acetylation of histone H3K9, H3K18 and H3K27” value with Kasumi-1 leukemia cells is given as “significantly inhibit; also recorded: inhibited”. Besides, the “inhibition of PCAF” value against PCAF (at 20 µM) is on record as < 10%. Further, the “inhibition of PCAF activity (in words)” value against PCAF (at 20 µM) is “did not significantly inhibit”.

The values above are taken from US20230167101A1, “NOVEL INHIBITORS OF HISTONE […] P300/CBP FOR CANCER THERAPY” (BAYLOR COLLEGE OF MEDICINE, priority 2020, published 2023).
